Experimental data as given in patent US20230358677A1, “Reversible Excited-State Photoacids and Photobases as Dynamic Fluorescence Sensors of Protonic Species” (California Institute of Technology, priority 2022, published 2023).
Entries after “also recorded” stand apart in the source; their conditions may differ. Read-outs that look alike come from different tables or passages of the source.

Legend:
[1] = cited from earlier work; for pKa* pseudo: excited state, photoluminescence titration, Henderson-Hasselbalch analysis; for pKa: ground state
[2] = Ground-state and excited-state acidities of aromatic-amine-based photoacids (Table 1); conditions: pKa* pseudo minus pKa
Description: Because the Henderson-Hasselbalch equation is derived for proton-transfer reactions at thermal and chemical equilibrium, it is agnostic to whether the ESPT acceptor species are H2O(l) or OH^−(aq), but it does require that the system has reached excited-state quasi-equilibrium.
Observed rate constants can be determined for excited-state proton transfer from weak photoacids to a series of proton-accepting quenchers.

[3] = Acid-base titration of aqueous photoacid with absorption and steady-state photoluminescence detection (Henderson-Hasselbalch / Stern-Volmer fits, OH− as quencher); conditions: for predicted pK*a pseudo (Equation 5): from bimolecular rate constant and excited-state lifetime; for bimolecular rate constant k+q,ss,OH−: steady-state data, forward direction of Reaction 1 with B=OH−(aq)
Description: FIGS. 2A through 2C illustrate acid-base titration of an aqueous solution of NS—NH2 photoacid with absorption and photoluminescence detection in accordance with an embodiment.
where aOH− is the activity of OH^−(aq), K*b pseudo is an erroneous observed equilibrium constant for base dissociation and KSV,OH− is the Stern-Volmer quenching constant, which is strictly dimensionless but reported here in units of M^−1 to be consistent with its typical usage. Unlike the Henderson-Hasselbalch equation, the Stern-Volmer equation is also applicable to non-equilibrium processes.
and KSV,OH−=k+q,OH−τo,PAH*, where τ is the excited-state lifetime (s) of NS—NH2* in the absence (τo,PAH*) or presence (τPAH*) of OH^− quencher and k+q,OH− is the bimolecular rate constant (M^−1 s^−1) for quenching of NS—NH2* by OH^− (forward direction of Reaction 1 with B=OH^−(aq)).
Several embodiments use the steady-state ultraviolet-visible electronic absorption and photoluminescence spectroscopy for characterization. Equal amounts of aromatic amine photoacids are portioned into five separate 100 mL volumetric flasks. For the non-proton-accepting quencher experiments, the five flasks are filled to the volumetric marker with aqueous solutions of 1 M HCl, 1 M KOH, 2 M KOH, 3 M KOH, and 4 M KOH. The aqueous 1 M KOH solution is titrated with the aqueous 1 M HCl solution to reach the desired pH values from 14 to 6, and the H^+ activities are measured using a pH meter (pH/Ion 510). […] Electronic absorption spectra and photoluminescence spectra are acquired using absorbance and fluorescence spectrometer(s), using a square-bottom quartz cuvette (1 cm path length) at room temperature. Electronic absorption spectra are baselined on a spectrum of deionized water and were corrected for scattering of light. Photoluminescence spectra are recorded by exciting with 310 nm light, slit widths for the excitation and emission monochromators were set to 5 nm, and the PMT detector voltage is set to 600 V. Photoluminescence spectra are corrected for changes in solution refractive index, inner filter effects and the wavelength-dependent correction factor of the fluorimeter. For experiments that use non-OH^− proton-accepting quenchers, equal amounts of the quencher are added to the dry volumetric flask intended to form the acidic and basic aqueous photoacid solutions, to prevent changes in total quencher concentration during the titration, and titrations are performed similarly to those in the absence of added proton-accepting quenchers. Although the total quencher concentration is kept constant throughout the titration, the activity of the deprotonated quencher species varied as a function of solution pH according to Equation 3. Ionic strength is matched at the most alkaline pH values; however, it is experimentally difficult to maintain the same ionic strength throughout the titration. Normalized photoluminescence intensities as a function of solution pH are obtained by dividing the corrected photoluminescence intensities at the wavelength of maximum photoluminescence to the maximum corrected photoluminescence intensity at the same wavelength.

[4] = Stability of dye fluorescence near an operating gas diffusion electrode

Compound	pKa* pseudo [1]	pKa [1]	ΔpKa pseudo [2]	further results
Nc1cccc2c1C(=O)c1cccc(N)c1C2=O [1,5-diaminoanthraquinone]	12.3	>14	< −1.7	–
CNc1ccccc1-c1nc2ccccc2n1C [2-(2′-N-methyl-aminophenyl)-N-methylbenzimidazole]	12.2	–	–	–
Nc1ccc2c(c1)Cc1cc(N)ccc1-2 [2,7-diaminofluorene]	13.9	>16	< −2.1	–
2-aminonaphthalene-6-sulfonate	11.86	–	–	–
Nc1cc2ccccc2cc1C(=O)O [2-amino-3-naphthoic acid]	12.8	>16	< 3.2	–
Nc1ccc(Nc2ccc(N)cc2)cc1 [4,4′-diaminodiphenylamine]	13.5	>14.2	< −0.7	–
Nc1ccc(-c2ccccc2)cc1 [4-aminobiphenyl]	14.25	>15.5	< −1.25	–
Nc1ccc2c(c1)C(=O)c1ccc(N)cc1C2=O [2,6-diaminoanthraquinone]	14.2	>15.6	< −1.4	–
O=C(O)c1ccc2[nH]ccc2c1 [indole-5-carboxylic acid]	12.3	16.9	−4.6	–
Nc1ccc2[nH]ccc2c1 [5-aminoindole]	14	16.1	−2.1	–
Nc1cccc(-c2ccccc2)c1 [3-aminobiphenyl]	12.0	>15.0	< −3.0	–
Nc1ccc2c(c1)Cc1ccccc1-2 [2-aminofluorene]	13.0	–	–	–
c1ccc(-c2cc(-c3ccccc3)[nH]n2)cc1 [3,5-diphenylpyrazole]	12.64	12.94	−0.3	–
Nc1ccc(C(=O)O)cn1 [6-aminonicotinic acid]	14.2	–	–	–
Nc1ccc2ccccc2c1 [2-naphthylamine]	11.75	14.95	−3.2	–
Nc1ccc(Nc2ccccc2)cc1 [4-aminodiphenylamine]	11.2	>16.0	< −4.8	–
COC(=O)c1ccc(N)nc1 [methyl-6-aminonicotinate]	11.1	–	–	–

Compound	pKa* pseudo [1]	pKa [1]	ΔpKa pseudo [2]	further results
COc1cccc(N)c1 [m-anisidine]	13.7	>16	–	–
Nc1ccccc1-c1ccccc1 [2-aminobiphenyl]	12.1	>15.0	< −2.9	–
Nc1cc2ccccc2c2ccccc12 [9-phenanthrylamine]	12.18	>14	< −1.82	–
Nc1cc2ccccc2cc1N [2,3-diaminonaphthalene]	12.9	>16	< −3.1	–
O=C(O)c1cccc2[nH]ccc12 [indole-4-carboxylic acid]	12.2	16.4	−4.2	–
COc1n[nH]c2ccccc12 [3-methoxyindazole]	11.7	14.0	−2.3	–
O=C(O)c1c[nH]c2ccccc12 [indole-3-carboxylic acid]	13.1	15.6	−2.5	–
Nc1cnc2ccccc2c1 [3-aminoquinoline]	12.1	–	–	–
NCCNc1cccc2c(S(=O)(=O)[O-])cccc12.[Na+] [EDANS, 5-((2-aminoethyl)amino)naphthalene-1-sulfonic acid sodium salt]	–	–	–	pKa ([3]; aqueous solution, pKa of the aliphatic primary amine, multi-quencher Stern-Volmer fit): 10.06 ± 0.02; unimolecular rate constant ([3]; excited-state deprotonation by the aliphatic primary amine): (0.95±0.01)×10^8 s^−1; KSV,NH2 ([3]; excited-state deprotonation by the aliphatic primary amine (intramolecular)): 1.20 ± 0.02 M⁻¹; predicted pK*a pseudo (Equation 5) [3]: 12.53±0.06; bimolecular rate constant k+q,ss,OH− [3]: (23±1)×10^8 M^−1 s^−1; KSV,ss,OH− ([3]; steady-state photoluminescence, non-linear Stern-Volmer fit, OH−(aq) quencher): 30 ± 1 M⁻¹
Nc1cc(S(=O)(=O)[O-])c2ccc3c(S(=O)(=O)[O-])cc(S(=O)(=O)[O-])c4ccc1c2c43.[Na+].[Na+].[Na+] [APTS, 8-aminopyrene-1,3,6-trisulfonic acid trisodium salt]	–	–	–	colour of stock solution after exposure ([4]; 10 mM stock solution exposed to −100 mA/cm^2 for 30 minutes): from bright green to brown; photoluminescence intensity during GDE operation ([4]; high current densities (magnitudes >80 mA/cm^2), trisodium salt): degrades and slowly loses its fluorescence; also recorded: decrease in photoluminescence intensity; steady-state photoluminescence spectrum versus dissolved inorganic carbon ([4]; increasing concentration of dissolved inorganic carbon): minimal change in intensity; calibration curve after degradation versus fresh solutions ([4]; stock solution exposed to −100 mA/cm^2 for 5 minutes): nearly identical; degradation, pH 7.1 versus pH 3 solution ([4]; with and without light): degradation effect is more pronounced for the pH 3 solution; pKa [3]: > 14; bimolecular rate constant k+q,ss,OH− [3]: (2.992±0.004)×10^9 M^−1 s^−1; pK*a pseudo (Henderson-Hasselbalch fit) ([3]; steady-state photoluminescence titration, global fit of two trials): 12.83±0.01
O=S(=O)([O-])c1cccc2cccc(Nc3ccccc3)c12.[Na+] [sodium 8-anilinonaphthalene-1-sulfonate, 8-anilinonaphthalene-1-sulfonic acid sodium salt]	–	–	–	predicted pK*a pseudo (Equation 5) [3]: 13.92±0.04; bimolecular rate constant k+q,ss,OH− [3]: (48±4)×10^8 M^−1 s^−1; KSV,ss,OH− (linearized Stern-Volmer) ([3]; steady-state photoluminescence, traditional linearized Stern-Volmer fit, OH−(aq) quencher): 1.2 ± 0.1 M⁻¹
c1ccc2c(c1)[nH]c1ccccc12 [carbazole]	11.9	–	−9.2	–
Nc1cc2c3ccccc3ccc2c2ccccc12 [6-aminochrysene]	12.6	>14	< −1.4	–
COc1ccc(N)cc1 [p-anisidine]	13.3	>16	< −2.7	–
O=C(O)c1cc2ccccc2[nH]1 [indole-2-carboxylic acid]	12.9	17.1	−4.2	–
Nc1ccc(Oc2ccc(N)cc2)cc1 [bis(4-aminophenyl)ether]	11.2	–	–	–
